Assay results taken from US4233299A, “4-Hydroxy-2H-1,2-benzothiazine-3-carboxamide-1,1-dioxides and salts thereof” (priority 1977, dated 1980).
“Also recorded” adds a separate entry of the source. Read-outs that look alike come from different tables or passages of the source.

Assays:
[1] = test system: stomach of the rat; experiment: ulcerogenic effect on the stomach of the rat; format: in vivo, male Chbb:THOM-rats
Protocol: (§1) The test was carried out on male Chbb:THOM-rats with an average body weight of 130 gm at the beginning of the study. The animals were fed with a standard diet (Altromin-R) ad libitum. The test compounds were administered perorally as a trituration in 1% methyl cellulose (1 ml/100 gm animal) by means of an esophageal sound once a day on three successive days. Four hours after the last administration the animals were killed. The stomachs were dissected and the mucosa was washed with water for subsequent macroscopic evaluation. […] Therap. 96, 99 (1949)].

[2] = ulcerogenic effect on the stomach of the rat; format: in vivo, male Chbb:THOM-rats; conditions: rat, in vivo; for selectivity ratio: po, Table IV, ED50 ulcer / ED50 adjuvant arthritis prim. reaction, read-out: Therapeutic Ratio I/II; for TD50: Table II, daily oral administration for 3 days, limits in parentheses, Litchfield and Wilcoxon, read-out: Ulcerogenic activity in the stomach ED50
Protocol: as §1

[3] = test system: adjuvant arthritis; experiment: activity against adjuvant arthritis in the rat; format: in vivo, male Chbb:THOM-rats; conditions: for ED50: Rattus norvegicus, 504 h; for antiphlogistic activity: in words, compared with compound A
Protocol: 0.1 ml of a 1% suspension of M. butyricum in viscous paraffin oil was administered by subplantar injection to the right hind paw of male Chbb:THOM-rats having an average body weight of 210 gm at the beginning of the test. […]
Using a linear regression analysis, an ED50 with the confidence limits according to FIELLER [Quart. J. Pharm. Pharmacol. 17, 117 (1944)] was calculated as the dosage which reduces the swelling of the paws by 50% in comparison to the control animals.

[4] = acute toxicity in the mouse; format: in vivo, male and female Chbb: NMRI (SPF)-mice; conditions: in vivo; for selectivity ratio: po, Table V, LD50 / ED50 adjuvant arthritis prim. reaction, read-out: Therapeutic Ratio I/II (converted); for LD50 at 336 h: Table III, oral administration, mouse, deaths within 14 days, limits in parentheses
Protocol: (§2) The acute toxicity was determined on male and female Chbb: NMRI (SPF)-mice (sex ratio of each dosage group 1:1) having an average body weight of 20 gm. The test compound was administered perorally as a trituration in 1% of methyl cellulose (0.2 ml/10 gm animal) by means of an esophageal sound.
(§3) The calculation of the LD50 -values was effected according to the method of LITCHFIELD and WILCOXON, based on the percentage of animals which died within 14 days after administration of each dose.

[5] = test system: pain caused by inflammation (yeast edema); experiment: activity against the pain caused by inflammation (Randall and Selitto); format: in vivo, male Chbb:THOM-rats; conditions: for ED50: po, 1.5 h, read-out: Randall-Selitto ED50
Protocol: The activity against the pain caused by inflammation was tested according to Randall and Selitto [Arch. Int. Pharmacodyn. 111, 409 (1957] in male Chbb:THOM-rats, having a body weight of 100 to 130 gm. The test compounds were administered perorally 90 minutes after the induction of the yeast edema by means of an esophageal tube. After further 90 minutes the pain threshold was determined in the animals treated with the test compound and in the control animals treated only with the vehicle methyl cellulose, and by using a linear regression analysis an ED50 was calculated with the confidence limits according to FIELLER, the ED50 being the dose which increased the pain threshold by 50%.

[6] = test system: mouse; experiment: acute toxicity in the mouse; format: in vivo, male and female Chbb: NMRI (SPF)-mice; conditions: compared with the other compounds; see Table V
Protocol: as §2, §3

[7] = Table I, daily oral administration, 21 days, dose per day, left hind paw swelling reduced by 50%, confidence limits according to FIELLER in parentheses, read-out: Activity against the secondary reaction ED50
[8] = Table I, daily oral administration, 21 days, dose per day, right hind paw swelling reduced by 50%, confidence limits according to FIELLER in parentheses, read-out: Activity against the primary reaction ED50

| Structure (SMILES) | selectivity ratio [2] | TD50 [2] | ED50 [3, 7] | ED50 [3, 8] | antiphlogistic activity [3] | selectivity ratio [4] | LD50 at 336 h [4] | other results |
| --- | --- | --- | --- | --- | --- | --- | --- | --- |
| Cc1csc(NC(=O)C2=C(O)c3ccccc3S(=O)(=O)N2C)n1 [Compound B, 4-Hydroxy-2-methyl-N-(4-methyl-2-thiazolyl)-2H-1,2-benzothiazine-3-carboxamide-1,1-dioxide] | 0.84 | 0.31 mg/kg | 0.21 mg/kg | 0.37 mg/kg | does not completely reach the antiphlogistic activity of compound A | 1320 | 488 mg/kg | therapeutic ratio, in words ([1]; Table IV ratio, compared with compound C): still smaller than that of compound C; ulcerogenic activity, in words ([1]; stomach): strong ulcerogenic effect; also recorded: relatively more pronounced than its antiphlogistic activity; ulcerogenic effect on the stomach, relative to compound A ([1]; times stronger than that of compound A): more than 6 times |
| Cc1cnc(NC(=O)C2=C(O)c3ccccc3S(=O)(=O)N2C)s1 [Compound A, 4-Hydroxy-2-methyl-N-(5-methyl-2-thiazolyl)-2H-1,2-benzothiazine-3-carboxamide-1,1-dioxide] | 8.25 | 2.31 mg/kg | 0.12 mg/kg | 0.28 mg/kg |  | 1680 | 470 mg/kg | ED50 ([5]; Table VI, peroral, rat, dose which increased the pain threshold by 50%): 5.6 mg/kg; effectiveness against the pain caused by inflammation ([5]; rat, compared with compound C): increased effectiveness; therapeutic ratio relative to compound C ([1]; Table IV ratio, times greater than that of compound C): about 7 times; stomach compatibility ([1]; in vivo): significantly better; therapeutic ratio relative to compound B ([1]; times greater than that of compound B): 10 times; effect on the inflammatory primary reactions, relative to compound C ([3]; compared with compound C): three times greater; effect on the specific secondary reactions, relative to compound C ([3]; contralateral paw, compared with compound C): about 5 times; difference between the antiphlogistically active doses and the toxic doses [6]: distinctly higher than in the other compounds |
| CN1C(C(=O)Nc2nccs2)=C(O)c2ccccc2S1(=O)=O [C, 4-Hydroxy-2-methyl-N-(2thiazolyl)-2H-1,2-benzothiazine-3-carboxamide-1,1-dioxide] | 1.23 | 0.95 mg/kg |  |  | weaker antiphlogistic activity | 12600 | 466 mg/kg | ED50 ([5]; in Rattus norvegicus): 9.2 mg/kg; ulcerogenic effect on the stomach, relative to compound A ([1]; in words, compared with compound A): two times stronger; ED50 ([3]; po, read-out: Activity against the primary reaction ED50): 0.77 mg/kg; ED50 ([3]; po, read-out: Activity against the secondary reaction ED50): 0.6 mg/kg |
